The target in series [1] is α7^L131G, Q139L, Y217F-GlyR LGIC (Homo sapiens, UniProt P36544, L131G/Q139L/Y217F). The experiment in a line: Agonist potency at the modified chimeric LGIC. It is filed as cell-based.
Series [2] relates to m-α7-GlyR ion channels in cultured hippocampal neurons. Nature of the series: Sustained varenicline exposure of cultured hippocampal neurons expressing m-α7-GlyR. It is filed as cell-based. Particulars: varenicline 15 nM for 18 days; data not shown.
For series [3], the system named is m-α7-GlyR LGICs expressed in mouse cortical neurons. The experiment in a line: Evoked neuronal activity in mouse cortical neurons expressing m-α7-GlyR LGICs. Format: cell-based. As to conditions: data not shown.
The nature of series [4]: 28-day study: varenicline PK in blood samples. Format: in vivo, rat. As to the method: A 28-day biodistribution/toxicity study was conducted.
Series [5] is described as follows: Varenicline concentrations in blood, PFC and CSF after single oral administration. Format: in vivo, rat. As to conditions: male rats.
A further series relates to CNS function. Particulars: rat, in vivo.
For a further series, the system named is rat IoN-CCI model. The experiment in a line: Rat IoN-CCI model of trigeminal neuralgia, von Frey filament escape threshold (ET). It is filed as in vivo. As for the experimental part: Infraorbital nerve (IoN) chronic constriction injury (IoN-CCI) is an art-recognized animal model of trigeminal neuralgia (Vos et al. J Neurosci 14 (5 Pt 1): 2708-2723, 1994).
Mechanical allodynia was measured using a von Frey filament assay to define the escape threshold [ET]) in the rat IoN-CCI model. The total study duration was 6 months with two intermittent time points (2-and 4-months). Behavioral efficacy, as assessed by ET, and transgene expression in the trigeminal ganglion were evaluated.
Twelve groups of male and female adult rats were treated. AAV5-m-α7-GlyR LGIC vectors were injected percutaneously into the left trigeminal ganglion whereas the right untreated trigeminal ganglion served as control.
Naïve animals (no IoN-CCI, no AAV5-m-α7-GlyR LGIC or varenicline dosing) served as intact controls for behavioral and molecular analysis.
Varenicline tartrate was administered orally. A tartrate correction factor of 1.71 was applied in dose formulations.
Efficacy presented below is a combination of all 3 time points (2, 4, and 6 months) for each treatment group.

In a further series the target is T1, m-α7-GlyR LGIC (Homo sapiens, UniProt P36544, L131G/Q139L/Y217F).
T1 construct: expressed in transfected cells; host or cells: rodent neurons expressing the transgene (mouse cortical neurons, cultured hippocampal neurons; rat trigeminal ganglion after AAV5 injection)
The experiment in a line: Constitutive activity of m-α7-GlyR LGIC without varenicline. Particulars: absence of varenicline. It is filed as in vivo, rodents.

3 molecules from patent US20240390521A1, “CHIMERIC MODIFIED ION CHANNELS AND USES THEREOF FOR TREATMENT OF TRIGEMINAL NERVE DISORDERS” (Kriya Therapeutics, Inc., priority 2023, published 2024) can be followed below.

Structures can show the parent of a compound that is named as a salt.

Consider `C[N+](C)(C)CCO` [choline], for which the EC50 in series [1] was above 50 µM.
Consider `c1cnc2cc3c(cc2n1)[C@@H]1CNC[C@H]3C1` [varenicline, 6,10-Methano-6H-pyrazino[2,3-h][3]benzazepine, 7,8,9,10-tetrahydro-5,8,14-triazatetracyclo[10.3.1.02,11.04,9]hexadeca-2,4,6,8,10-pentaene tartrate salt], for which the “tachyphylaxis or down regulation of expressed m-α7-GlyR LGICs” value in series [2] is “did not result in tachyphylaxis or down regulation”. Besides, the “effect of activation by varenicline on evoked neuronal activity” value in series [3] was “reversible inhibition of evoked neuronal activity”. Besides, in series [4] (6 hours post-dose vs 2 hours, 1 mg/kg p.o.), the “decrease of varenicline level” value is given as “approximately 50%”. In series [4] (rat, blood, po, 2 hours post-dose, 1 mg/kg p.o., average across groups), this molecule displayed a concentration at 2 h of around 480 nM. Moreover, in series [4] (rat, blood, po, 24 hours post final dose, 1 mg/kg p.o. daily, average), the concentration at 24 h is 4.4 nM. The “sex differences in plasma varenicline levels” value in series [4] (rat, in vivo) is given as “no sex differences in plasma varenicline levels”. For the same molecule, in series [5], the “time of peak varenicline concentration in CSF” value worked out at 60 min, the “time of peak varenicline concentration in PFC” value came out at 90 min and the “time of peak varenicline concentration in blood” value was determined as 60 min. Further, in the series on CNS function, the “treatment related changes in the neurological assessments” value is listed as “no AAV5-m-α7-GlyR LGIC, varenicline or AAV5-m-α7-GlyR LGIC+varenicline related changes in the neurological assessments”. In addition, the “improvement of pain sensitivity, single agent alone” value in the series on rat IoN-CCI model (Group 6 varenicline alone, Group 7 AAV5-m-α7-GlyR LGIC (6×10^8 vg) alone, tartrate salt) was “neither varenicline alone nor AAV5-m-α7-GlyR LGIC alone (Groups 6 and 7, respectively) demonstrated improved pain sensitivity”. In addition, in the series with rat IoN-CCI model (all animals receiving treatment), the “varenicline levels at the time of sample collection” value was “within predictable levels”.

B1: m-α7-GlyR LGIC: human chimeric ion channel: modified nicotinic α7 receptor binding domain and glycine channel ion pore domain; SEQ ID NO: 1 (protein)
chain: MRCSPGGVWLALAASLLHVSLQGEFQRKLYKELVKNYNPLERPVANDSQPLTVYFSLSLLQIMDVDEKNQVLTTNIWLQMSWTDHYLQWNVSEYPGVKTVRFPDGQIWKPDILLYNSADERFDATFHTNVGVNSSGHCLYLPPGIFKSSCYIDVRWFPFDVQHCKLKFGSWSYGGWSLDLQMQEADISGYIPNGEWDLVGIPGKRSERFYECCKEPFPDVTFTVTMRRRMGYYLIQMYIPSLLIVILSWISFWINMDAAPARVGLGITTVLTMTTQSSGSRASLPKVSYVKAIDIWMAVCLLFVFSALLEYAAVNFVSRQHKELLRFRRKRRHHKEDEAGEGRFNFSAYGMGPACLQAKDGISVKGANNSNTTNPPPAPSKSPEEMRKLFIQRAKKIDKISRIGFPMAFLIFNMFYWIIYKIVRREDVHNQ
As for B1, the constitutive activity result with m-α7-GlyR LGIC is “no constitutive activity”.
